According to US9169254B2, “Spiroimidazolone derivative” (Chugai Seiyaku Kabushiki Kaisha, priority 2009, dated 2015):

Target: T1, human PTH1 receptor (Homo sapiens, UniProt Q03431)
T1 sequence (Q03431 27-593): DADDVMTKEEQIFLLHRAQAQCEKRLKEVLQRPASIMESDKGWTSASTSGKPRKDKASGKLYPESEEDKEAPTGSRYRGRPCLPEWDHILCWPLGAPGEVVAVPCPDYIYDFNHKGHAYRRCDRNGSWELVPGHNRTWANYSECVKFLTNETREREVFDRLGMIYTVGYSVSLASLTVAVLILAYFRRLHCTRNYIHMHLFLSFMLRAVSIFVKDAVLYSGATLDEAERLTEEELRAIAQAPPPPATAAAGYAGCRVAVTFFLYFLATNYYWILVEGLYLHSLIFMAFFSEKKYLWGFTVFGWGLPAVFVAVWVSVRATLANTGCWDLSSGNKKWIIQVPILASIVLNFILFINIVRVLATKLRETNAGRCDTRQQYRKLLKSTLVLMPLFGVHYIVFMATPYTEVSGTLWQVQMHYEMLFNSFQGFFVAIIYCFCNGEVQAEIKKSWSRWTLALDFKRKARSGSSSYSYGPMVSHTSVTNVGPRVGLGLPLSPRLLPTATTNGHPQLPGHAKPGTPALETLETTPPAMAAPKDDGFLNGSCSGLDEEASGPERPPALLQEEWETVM
Assay: In vitro cAMP signal activity in HKRK-B7 cells (LLC-PK1 cells overexpressing the human PTH1 receptor)
Type: cell-based
Conditions: HKRK-B7 cells; compound at 1×10^−3 M; […]; 0.1 µM

| Compound | cAMP production activity (%) |
| --- | --- |
| CC(=O)N1CCC(N(C(C)=O)c2ccc(/C=C/S(=O)(=O)N3CCC4(CC3)N=C(c3cccc(OC(F)(F)F)c3)NC4=O)c(C)c2)CC1 [Compound 1294, N-(1-Acetyl-piperidin-4-yl)-N-(3-methyl-4-{(E)-2-[4-oxo-2-(3-trifluoromethoxy-phenyl)-1,3,8-triaza-spiro[4.5]dec-1-ene-8-sulfonyl]-vinyl}-phenyl)-acetamide] | 76 |

Same assay, conditions: HKRK-B7 cells; compound at 1×10^−3 M; cAMP produced as percentage of that produced by hPTH(1-34) at 100 nM

| Compound | cAMP production activity (%) |
| --- | --- |
| Cc1cc(C(=O)N(C)C)ccc1CCS(=O)(=O)N1CCC2(CC1)N=C(N(C)c1ccccc1)NC2=O [Compound 1397, 3,N,N-trimethyl-4-{2-[2-(methyl-phenyl-amino)-4-oxo-1,3,8-triaza-spiro[4.5]dec-1-ene-8-sulfonyl]-ethyl}-benzamide] | 24 |
| COCCN(C(C)=O)c1cc(C)c(CCS(=O)(=O)N2CCC3(CC2)N=C(C2CCC(CCC(F)(F)F)CC2)NC3=O)c(C)c1 (stereo not drawn) [Compound 756, N-[3,5-dimethyl-4-(2-{4-oxo-2-[4-(3,3,3-trifluoro-propyl)-cyclohexyl]-1,3,8-triaza-spiro[4.5]dec-1-ene-8-sulfonyl}-ethyl)-phenyl]-N-(2-methoxy-ethyl)-acetamide] | 79 |
| Cc1cc(N2C(=O)NC(C)(C)C2=O)ccc1/C=C/S(=O)(=O)N1CCC2(CC1)N=C(C1CCC(C)CC1)NC2=O (stereo not drawn) [Compound 511, 5,5-dimethyl-3-(3-methyl-4-{(E)-2-[2-(4-methyl-cyclohexyl)-4-oxo-1,3,8-triaza-spiro[4.5]dec-1-ene-8-sulfonyl]-vinyl}-phenyl)-imidazolidine-2,4-dione] | 29 |
| CC(=O)Nc1ccc(CCS(=O)(=O)N2CCC3(CC2)N=C([C@H]2CC[C@@H](CC=C(F)F)CC2)NC3=O)c(C)c1 [Compound 1068, N-[4-(2-{2-[4-(3,3-difluoro-allyl)-cyclohexyl]-4-oxo-1,3,8-triaza-spiro[4.5]dec-1-ene-8-sulfonyl}-ethyl)-3-methyl-phenyl]-acetamide] | 68 |
| O=C1NC(c2cccc(OC(F)(F)F)c2)=NC12CCN(S(=O)(=O)/C=C/c1cc(Cl)c(OCCC(O)CO)cc1Cl)CC2 (stereo not drawn) [Compound 234, 8-{(E)-2-[2,5-dichloro-4-(3,4-dihydroxy-butoxy)-phenyl]-ethenesulfonyl}-2-(3-trifluoromethoxy-phenyl)-1,3,8-triaza-spiro[4.5]dec-1-en-4-one] | 78 |
| Cc1cc(C(=O)N(C)C)ccc1CCS(=O)(=O)N1CCC2(CC1)N=C(C1CCCC1)NC2=O [Compound 77, 4-[2-(2-cyclopentyl-4-oxo-1,3,8-triaza-spiro[4.5]dec-1-ene-8-sulfonyl)-ethyl]-3,N,N-trimethyl-benzamide] | 69 |
| Cc1cc(C(=O)N2CCC(O)(CF)CC2)cc(C)c1/C=C/S(=O)(=O)N1CCC2(CC1)N=C(c1ccc(OC(C)(C)C(F)(F)F)c(C(F)(F)F)c1)NC2=O [Compound 1265, 8-{(E)-2-[4-(4-fluoromethyl-4-hydroxy-piperidine-1-carbonyl)-2,6-dimethyl-phenyl]-ethenesulfonyl}-2-[4-(2,2,2-trifluoro-1,1-dimethyl-ethoxy)-3-trifluoromethyl-phenyl]-1,3,8-triaza-spiro[4.5]dec-1-en-4-one] | 89 |
| Cc1cc(C(=O)N(C)C)ccc1CCS(=O)(=O)N1CCC2(CC1)N=C(c1cccc(OC(F)(F)F)c1)N=C2N(C)C [Compound 899, 4-{2-[4-dimethylamino-2-(3-trifluoromethoxy-phenyl)-1,3,8-triaza-spiro[4.5]deca-1,3-diene-8-sulfonyl]-ethyl}-3,N,N-trimethyl-benzamide] | 12 |
| Cc1cc(C(=O)N2CCNC(=O)C2)cc(C)c1/C=C/S(=O)(=O)N1CCC2(CC1)N=C(c1ccc(F)c(C(F)(F)F)c1)NC2=O [Compound 968, 8-{(E)-2-[2,6-Dimethyl-4-(3-oxo-piperazine-1-carbonyl)-phenyl]-ethenesulfonyl}-2-(4-fluoro-3-trifluoromethyl-phenyl)-1,3,8-triaza-spiro[4.5]dec-1-en-4-one] | 69 |
| CCCCCCCCCC1=NC2(CCN(S(=O)(=O)CCc3ccc(N4C(=O)CNC4=O)cc3C)CC2)C(=O)N1 [Compound 790, 3-{3-methyl-4-[2-(2-nonyl-4-oxo-1,3,8-triaza-spiro[4.5]dec-1-ene-8-sulfonyl)-ethyl]-phenyl}-imidazolidine-2,4-dione] | 88 |
| CCCCC1CCC(C2=NC3(CCN(S(=O)(=O)/C=C/c4c(C)cc(N(CCOCCF)C(C)=O)cc4C)CC3)C(=O)N2)CC1 (stereo not drawn) [Compound 562, N-(4-{(E)-2-[2-(4-butyl-cyclohexyl)-4-oxo-1,3,8-triaza-spiro[4.5]dec-1-ene-8-sulfonyl]-vinyl}-3,5-dimethyl-phenyl)-N-[2-(2-fluoro-ethoxy)-ethyl]-acetamide] | 74 |
| Cc1cc(C(=O)N2CCC(O)(CF)CC2)cc(C)c1/C=C/S(=O)(=O)N1CCC2(CC1)N=C(c1ccc(Cl)c(OCC(F)(F)C(F)(F)F)c1)NC2=O [Compound 1270, 2-[4-chloro-3-(2,2,3,3,3-pentafluoro-propoxy)-phenyl]-8-{(E)-2-[4-(4-fluoromethyl-4-hydroxy-piperidine-1-carbonyl)-2,6-dimethyl-phenyl]-ethenesulfonyl}-1,3,8-triaza-spiro[4.5]dec-1-en-4-one] | 61 |
| Cc1cc(N(C)C(N)=O)cc(C)c1CCS(=O)(=O)N1CCC2(CC1)N=C(C1C3CCCC1CCC3)NC2=O (stereo not drawn) [Compound 1053, 1-{4-[2-(2-bicyclo[3.3.1]non-9-yl-4-oxo-1,3,8-triaza-spiro[4.5]dec-1-ene-8-sulfonyl)-ethyl]-3,5-dimethyl-phenyl}-1-methyl-urea] | 70 |
| Cc1cc(C(=O)N(C)C)ccc1CCS(=O)(=O)N1CCC2(CC1)N=C(c1cccc(C(F)(F)F)c1F)NC2=O [Compound 116, 4-{2-[2-(2-fluoro-3-trifluoromethyl-phenyl)-4-oxo-1,3,8-triaza-spiro[4.5]dec-1-ene-8-sulfonyl]-ethyl}-3,N,N-trimethyl-benzamide] | 94 |
| Cc1cc(OC[C@H](O)CO)cc(C)c1/C=C/S(=O)(=O)N1CCC2(CC1)N=C(c1ccc(F)c(OC(F)(F)F)c1)NC2=O [Compound 1164, 8-{(E)-2-[4-((R)-2,3-Dihydroxy-propoxy)-2,6-dimethyl-phenyl]-ethenesulfonyl}-2-(4-fluoro-3-trifluoromethoxy-phenyl)-1,3,8-triaza-spiro[4.5]dec-1-en-4-one] | 4.7 |
| O=C1NC(c2cccc(OC(F)(F)F)c2)=NC12CCN(S(=O)(=O)CCc1cc(F)c(OCCC(O)CO)c(F)c1)CC2 (stereo not drawn) [Compound 860, 8-{2-[4-(3,4-dihydroxy-butoxy)-3,5-difluoro-phenyl]-ethanesulfonyl}-2-(3-trifluoromethoxy-phenyl)-1,3,8-triaza-spiro[4.5]dec-1-en-4-one] | 50 |
| Cc1cc(NC[C@H](O)CO)ccc1CCS(=O)(=O)N1CCC2(CC1)N=C(c1ccc(OC(F)(F)F)cc1)NC2=O [Compound 156, 8-{2-[4-((S)-2,3-Dihydroxy-propylamino)-2-methyl-phenyl]-ethanesulfonyl}-2-(4-trifluoromethoxy-phenyl)-1,3,8-triaza-spiro[4.5]dec-1-en-4-one] | 64 |
